Measured values as given in patent publication US4797406A, “Amides and esters containing bridged piperidines and use as serotonin M antagonists” (Sandoz Ltd., priority 1983, dated 1989).

Experiments:
[1] = target: T1, M receptors for serotonin (Oryctolagus cuniculus, UniProt A0A5F9C9J3); conditions: isolated rabbit vagus nerve; known serotonin D receptor antagonists; cited from earlier work
T1 construct: isolated rabbit vagus nerve; from tissue; host or cells: isolated rabbit vagus nerve
T1 sequence (A0A5F9C9J3 1-494): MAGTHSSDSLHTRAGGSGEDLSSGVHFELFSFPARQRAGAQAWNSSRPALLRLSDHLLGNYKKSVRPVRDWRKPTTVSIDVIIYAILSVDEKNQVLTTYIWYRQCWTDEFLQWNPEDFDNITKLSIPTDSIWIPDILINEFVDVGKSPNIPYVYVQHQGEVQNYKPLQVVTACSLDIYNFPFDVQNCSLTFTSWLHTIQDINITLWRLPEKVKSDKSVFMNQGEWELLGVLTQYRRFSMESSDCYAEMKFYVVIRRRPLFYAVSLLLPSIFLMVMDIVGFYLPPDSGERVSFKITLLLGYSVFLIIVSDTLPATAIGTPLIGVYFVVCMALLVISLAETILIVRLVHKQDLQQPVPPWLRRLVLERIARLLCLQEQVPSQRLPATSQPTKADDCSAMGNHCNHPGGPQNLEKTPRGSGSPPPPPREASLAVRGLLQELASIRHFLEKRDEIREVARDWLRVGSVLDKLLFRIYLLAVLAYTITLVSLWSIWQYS

serotonin M receptor = conditions: human volunteers, forearm blister; serotonin D receptor antagonists; cited from earlier work
[2] = target: T1, M receptors for serotonin; assay: isolated rabbit vagus nerve test (serotonin reduction of C fibre compound action potential); conditions: antagonism of serotonin on C fibre action potential, read-out: pA2 in the vagus nerve test (converted)
From the text: For example, in one test the action of the compounds in inhibiting the action of serotonin in reducing the amplitude of the compound action potential from the isolated rabbit vagus nerve was observed according to the principles of Riccioppo Neto, European Journal of Pharmacology (1978) 49 351-356, under conditions permitting differentation between action potentials generated in myelinatd nerve fibres (A fibres) and those generated in small non-myelinated fibres (C fibres) as described by B. Oakley and R. Schater, Experimental Neurobiology, A Laboratory Manual, University of Michigan Press, 1978, p.85 to 96. Serotonin itself exerts its effect selectively on the C-fibres progressively with dosage. This action of serotonin is not blocked by the known serotonin antagonists, metitepine, methysergide, BOL - 148, which have been said to block D receptors for serotonin, but not M receptors (see Gaddam and Picarlli, Brit.J.Pharmacol. (1957), 12, 323-328). It therefore appears that serotonin reduces the amplitude of the action potential carried by the C fibres through an effect mediated by M receptors for serotonin which are located on these nerve fibres.
The test may be effected by establishing a dose response curve for serotonin (10^-7 -5×10^-6 M) after setting up the nerve. […]

migraine attack = conditions: slow i.v. injection of 10 mg; reported by J. B. Hughes 1977; cited from earlier work

Question: With `CCN(CC)C(=O)[C@@H]1C=C2c3cccc4[nH]c(Br)c(c34)C[C@H]2N(C)C1` [BOL - 148] as the compound, how does the “block of the action of serotonin on the C fibre action potential” value (shortened to “block of the action of serotonin”) [1] read?
Answer: not blocked

Question: And the “inhibition of the algesic action of serotonin on the blister base” value (serotonin M receptor)?
Answer: not inhibited

Question: Which Kb [2] does the source give for `CN1C[C@H]2CCC[C@@H](C1)[C@@H]2OC(=O)c1c[nH]c2ccccc12` [Example 2] here?
Answer: 6.31 nM

Question: Which “inhibition of the algesic action of serotonin on the blister base” value (serotonin M receptor) does the source give for `CCN(CC)C(=O)[C@@H]1C=C2c3cccc4[nH]cc(c34)C[C@H]2N(C)C1` [lysergic acid diethylamide] here?
Answer: not inhibited

Question: Which “block of the action of serotonin” value [1] does the source give for `CC[C@@H](CO)NC(=O)[C@@H]1C=C2c3cccc4c3c(cn4C)C[C@H]2N(C)C1` [methysergide] here?
Answer: not blocked

Question: With `CSc1ccc2c(c1)C(N1CCN(C)CC1)Cc1ccccc1S2` (centres unmarked) [metitepine] as the compound, how does the “block of the action of serotonin” value [1] read?
Answer: not blocked

Question: With `CCN(CC)CCNC(=O)c1cc(Cl)c(N)cc1OC` [metoclopramide, Metoclopramide] as the compound, how does the “effect on a migraine attack” value (migraine attack) read?
Answer: immediate effect

Question: What about the Kb [2] of the same compound?
Answer: 50.1 nM
